The species entered for one assay is Homo sapiens. As to the kind of experiment: Inhibition of MDH (unknown origin).
A further assay relates to Pseudomonas syringae. In words: Inhibition of Pseudomonas syringae guanidine carboxylase using urea as substrate at 200 uM by coupled enzyme assay.
Assay [1] has as its target Carbonic anhydrase 2 (Homo sapiens) (UniProt P00918). As to the kind of experiment: Inhibition of human CA2 at 200 uM.
The target of assay [2] is Macrophage metalloelastase (Homo sapiens) (UniProt P39900). In words: Inhibition of MMP-12 (unknown origin) at 50 uM.
Assay [3] deals with T1, Pyruvate carboxylase (Staphylococcus aureus (strain Mu50 / ATCC 700699), UniProt A0A0H3JRU9).
T1 sequence (A0A0H3JRU9 whole entry): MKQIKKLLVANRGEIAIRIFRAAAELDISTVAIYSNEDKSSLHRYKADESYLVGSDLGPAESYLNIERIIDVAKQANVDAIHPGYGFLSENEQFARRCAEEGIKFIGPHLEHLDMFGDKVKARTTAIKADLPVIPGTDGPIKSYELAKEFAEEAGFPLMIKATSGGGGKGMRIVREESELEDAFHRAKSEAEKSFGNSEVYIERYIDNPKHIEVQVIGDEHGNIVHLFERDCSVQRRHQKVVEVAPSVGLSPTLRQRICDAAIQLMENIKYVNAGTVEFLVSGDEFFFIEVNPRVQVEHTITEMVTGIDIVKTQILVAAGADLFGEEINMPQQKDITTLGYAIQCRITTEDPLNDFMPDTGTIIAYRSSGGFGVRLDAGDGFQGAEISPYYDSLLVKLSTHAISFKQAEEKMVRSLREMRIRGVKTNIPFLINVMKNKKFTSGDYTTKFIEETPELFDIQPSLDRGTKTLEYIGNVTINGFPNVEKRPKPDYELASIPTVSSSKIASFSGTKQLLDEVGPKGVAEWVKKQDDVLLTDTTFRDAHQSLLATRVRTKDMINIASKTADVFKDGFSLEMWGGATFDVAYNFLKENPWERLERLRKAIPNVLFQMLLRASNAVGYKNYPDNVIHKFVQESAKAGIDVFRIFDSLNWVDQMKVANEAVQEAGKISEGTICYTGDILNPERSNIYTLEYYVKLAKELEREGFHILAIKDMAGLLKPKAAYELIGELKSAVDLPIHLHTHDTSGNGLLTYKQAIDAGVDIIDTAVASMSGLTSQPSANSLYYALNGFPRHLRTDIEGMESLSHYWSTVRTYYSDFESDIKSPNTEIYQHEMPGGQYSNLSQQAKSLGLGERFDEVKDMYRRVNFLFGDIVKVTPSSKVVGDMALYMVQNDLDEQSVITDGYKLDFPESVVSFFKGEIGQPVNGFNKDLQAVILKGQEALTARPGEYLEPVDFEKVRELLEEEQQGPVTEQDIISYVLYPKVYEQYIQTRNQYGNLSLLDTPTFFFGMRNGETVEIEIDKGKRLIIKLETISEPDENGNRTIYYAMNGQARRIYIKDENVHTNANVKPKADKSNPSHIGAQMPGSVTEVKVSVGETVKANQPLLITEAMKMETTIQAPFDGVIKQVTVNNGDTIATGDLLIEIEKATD
As to the kind of experiment: Inhibition of Staphylococcus aureus Pyruvate carboxylase using pyruvate, HCO3-, ATP and NADH as substrate assessed as oxaloacetate formation by measuring NADH oxidation by spectrophotometry based malate dehydrogenase coupled enzyme assay.

Assay [4] deals with T1, Pyruvate carboxylase. In words: Mixed type inhibition of Staphylococcus aureus pyruvate carboxylase assessed as inhibition constant pretreated with pyruvate followed by ATP, HCO3- and NADH addition by steady state kinetic analysis.
The target in assay [5] is T1, Pyruvate carboxylase. As to the kind of experiment: Non-competitive inhibition of Staphylococcus aureus pyruvate carboxylase assessed as inhibition constant pretreated with ATP followed by pyruvate, HCO3- and NADH addition by steady state kinetic analysis.
Assay [6] addresses T1, Pyruvate carboxylase. As to the kind of experiment: Mixed type inhibition of Staphylococcus aureus pyruvate carboxylase assessed as inhibition constant pretreated with ATP followed by pyruvate, HCO3- and NADH addition by steady state kinetic analysis.
In assay [7] the target is T1, Pyruvate carboxylase. In words: Inhibition of Staphylococcus aureus pyruvate carboxylase by FVB based high-throughput fixed time assay.

Structures are written as SMILES. The source made the active and inactive calls. The rule behind the calls is not given here.

Macrophage metalloelastase (Homo sapiens), sequence (P39900 106-470 limits assumed): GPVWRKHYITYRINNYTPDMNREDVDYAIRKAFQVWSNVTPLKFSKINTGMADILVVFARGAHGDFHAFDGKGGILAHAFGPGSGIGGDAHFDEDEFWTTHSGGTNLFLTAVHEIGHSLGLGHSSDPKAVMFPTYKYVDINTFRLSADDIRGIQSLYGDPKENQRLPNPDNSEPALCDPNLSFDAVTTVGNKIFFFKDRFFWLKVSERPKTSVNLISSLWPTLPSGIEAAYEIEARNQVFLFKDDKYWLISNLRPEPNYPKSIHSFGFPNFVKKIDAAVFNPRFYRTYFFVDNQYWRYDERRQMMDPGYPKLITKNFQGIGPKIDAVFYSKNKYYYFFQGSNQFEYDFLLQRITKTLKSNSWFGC

By IC50 is commonly meant the concentration needed to halve the response being measured. Regarding `CCOC(=O)CN1C(=O)C(=O)N(CCc2ccccc2)C1=O`, the inhibition entry (in the assay filed under Homo sapiens; in the assay on Pseudomonas syringae; in assay [1]; in assay [2]) was “inactive” each time. Further, the IC50 at Pyruvate carboxylase [3] was 9.3 µM.

As to `CCCOC(=O)CN1C(=O)C(=O)N(c2ccccc2)C1=O`, the inhibition entry (in the assay filed under Homo sapiens; in the assay on Pseudomonas syringae; in assay [1]; in [2]) was “inactive” each time. The half-inhibitory concentration (IC50) at Pyruvate carboxylase [3] is 5 µM.

As to `CCOC(=O)CN1C(=O)C(=O)N(c2ccccc2)C1=O`, the inhibition result (in the assay listed under Homo sapiens; in the assay on Pseudomonas syringae; in assay [1]; in assay [2]) was “inactive” throughout. The IC50 at Pyruvate carboxylase [3] is 5.1 µM.

As to `O=C1C(=O)N(c2ccc(Br)cc2)C(=O)N1Cc1ccccc1`, the inhibition result in the assay filed under Homo sapiens is “inactive”. In addition, the IC50 at Pyruvate carboxylase [3] stood at 290 µM.

For the compound `COC(=O)CN1C(=O)C(=O)N(c2ccccc2)C1=O`, the inhibition result in the assay filed under Homo sapiens is “inactive”. Also, the IC50 at Pyruvate carboxylase [3] was 3.5 µM.

For `CCOC(=O)CCN1C(=O)C(=O)N(c2ccc(F)cc2)C1=O`, the inhibition result (in the assay filed under Homo sapiens; in the assay with Pseudomonas syringae; in [1]; in [2]) was “inactive” in each case. In addition, the IC50 at Pyruvate carboxylase [3] was 29 µM.

`CCOC(=O)CN1C(=O)C(=O)N(Cc2ccco2)C1=O`: the inhibition entry (in the assay listed under Homo sapiens; with Pseudomonas syringae; in assay [1]; in [2]) was “inactive” in each case. In addition, the IC50 on Pyruvate carboxylase [3] was 12 µM.

As for `CC(c1ccccc1)N1C(=O)C(=O)N(c2ccccc2)C1=O` (configuration not stated), the inhibition entry in the assay listed under Homo sapiens was “inactive”. For the same compound, the IC50 at Pyruvate carboxylase [3] stood at 35 µM.

In the case of `CCOC(=O)CN1C(=O)C(=O)N(CCc2cccs2)C1=O`, the inhibition result (in the assay filed under Homo sapiens; in the assay on Pseudomonas syringae; in [1]; in assay [2]) was “inactive” throughout. Further, the IC50 at Pyruvate carboxylase [3] was found to be 7.9 µM.

With `COC(=O)CCN1C(=O)C(=O)N(Cc2ccccc2)C1=O`, in the assay listed under Homo sapiens, the inhibition entry is “inactive”. Also, the IC50 on Pyruvate carboxylase [3] stood at 68 µM.

`CCOC(=O)CN1C(=O)C(=O)N(CC(=O)OCC)C1=O`: the inhibition entry in the assay filed under Homo sapiens was “inactive”. Moreover, the IC50 at Pyruvate carboxylase [3] was 9 µM.

With `O=C1C(=O)N(C2CCCc3ccccc32)C(=O)N1c1ccccc1` (configuration not stated), the inhibition result in the assay listed under Homo sapiens is “inactive”. Also, on Pyruvate carboxylase [3], the IC50 stood at 59 µM.

A word on the Ki: it is the dissociation constant of the complex between target and ligand, obtained from inhibition or displacement. For the compound `CCOC(=O)CN1C(=O)C(=O)N(Cc2cccs2)C1=O`, the results for the Ki on Pyruvate carboxylase [4] and on Pyruvate carboxylase [5] were 1.8 µM and 14 µM, respectively. Moreover, the inhibition result (in the assay listed under Homo sapiens; in the assay with Pseudomonas syringae; in assay [1]; in [2]) was “inactive” each time. Further, the IC50 on Pyruvate carboxylase [3] came out at 5.2 µM.

For `O=C1C(=O)N(c2ccccc2)C(=O)N1Cc1ccccc1`, the figures for the Ki at Pyruvate carboxylase [4] and on Pyruvate carboxylase [5] were 24 µM and 150 µM, respectively. For the same compound, the inhibition entry (in the assay listed under Homo sapiens; in the assay on Pseudomonas syringae; in assay [1]; in [2]) was “inactive” each time. Besides, the IC50 on Pyruvate carboxylase [3] was determined as 64 µM.

`O=C1C(=O)N(c2ccccc2)C(=O)N1CCc1cccs1`: in the assay filed under Homo sapiens, the inhibition result was “inactive”. In addition, the IC50 at Pyruvate carboxylase [3] amounted to 92 µM.

In the case of `CCOC(=O)CN1C(=O)C(=O)N(c2ccc(F)cc2)C1=O`, the inhibition entry (in the assay listed under Homo sapiens; with Pseudomonas syringae; in [1]; in [2]) was “inactive” each time. Also, on Pyruvate carboxylase [3], the IC50 came to 3.4 µM.

With `CCOC(=O)CN1C(=O)C(=O)N(Cc2ccccc2)C1=O`, the Ki stood at 0.58 µM at Pyruvate carboxylase [4] and 7 µM at Pyruvate carboxylase [6]. In addition, the inhibition result (in the assay listed under Homo sapiens; in the assay on Pseudomonas syringae; in [1]; in assay [2]) was “inactive” each time. The IC50 at Pyruvate carboxylase [3] amounted to 7.3 µM.

Turning to `O=C1C(=O)N(c2ccccc2)C(=O)N1CCc1ccccc1`, in the assay listed under Homo sapiens, the inhibition result is “inactive”. Further, the IC50 on Pyruvate carboxylase [3] was 370 µM.

Consider `O=C(O)CN1C(=O)C(=O)N(Cc2ccccc2)C1=O`, for which the inhibitory constant (Ki) at Pyruvate carboxylase [4] is 9 µM; at Pyruvate carboxylase [5], 140 µM. Also, the inhibition result (in the assay listed under Homo sapiens; with Pseudomonas syringae; in assay [1]; in [2]) was “inactive” throughout. The IC50 on Pyruvate carboxylase [3] worked out at 30 µM.

With `COc1ccc(N2C(=O)C(=O)N(Cc3ccccc3)C2=O)cc1`, the inhibition result (in the assay filed under Homo sapiens; in the assay on Pseudomonas syringae; in assay [1]; in [2]) was “inactive” in each case. In addition, the IC50 at Pyruvate carboxylase [3] amounted to 17 µM.

On to `CN1C(=O)C(=O)N(CC(=O)c2cccs2)C1=O`, for which the Ki on Pyruvate carboxylase [4] turned out to be 5.2 µM; on Pyruvate carboxylase [5], 38 µM. In addition, the inhibition entry (in the assay listed under Homo sapiens; with Pseudomonas syringae; in assay [1]; in [2]) was “inactive” throughout. The IC50 amounted to 35 µM on Pyruvate carboxylase [7] and 45 µM at Pyruvate carboxylase [3].

Source of the values: ChEMBL document CHEMBL5584270, “Synthesis and Evaluation of 1,3-Disubstituted Imidazolidine-2,4,5-triones as Inhibitors of Pyruvate Carboxylase” (ACS Med Chem Lett, 2024).
